The values that follow come from PubChem BioAssay (NCI).

Test systems include P388 leukemia; P388/ADR leukemia; KM20L2 colon; SN12K1 renal; RXF-631 renal.
Experiment in all cases: NCI tumour cell line growth inhibition, 48 h

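Results reflect a 48-hour exposure of cells in 96-well plates to compound at five concentrations. TGI: concentration producing complete growth inhibition.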 Where only a bound is given, the exact number is not on record here.

Turning to `Cc1ccc(C2COc3cc(O)c(O)cc3C2)cc1` (stereo not given), the TGI is 750 µM in the assay on P388 leukemia, 750 µM with P388/ADR leukemia, 164 µM in the assay with KM20L2 colon and 75 µM in the assay on SN12K1 renal.

As to `O=C(c1ccccc1)c1nc2ccc(Cl)cc2c2c1CCCO2`, in the assay with KM20L2 colon, the TGI is > 100 µM.

With `COc1cc(C(=O)CC2OC(=O)C(Cl)=C2Cl)ccc1Cl` (stereo not given), the TGI in the assay on RXF-631 renal and with KM20L2 colon was > 100 µM throughout.

`Cc1ccc2c(ccc(/C=C\c3cc(C)c4cccnc4c3O)[n+]2C)c1` came in with a TGI with KM20L2 colon of 33.3 µM.

As for `CN=C(N)c1ccc(N=C(N)c2ccc(C(N)=Nc3ccc(C(N)=NC)cc3)cc2)cc1`, the TGI in the assay with RXF-631 renal was > 100 µM.

Take `Clc1ccc(C[P+]2(c3ccccc3)CCCCC2)cc1`: in the assay with KM20L2 colon, the TGI is > 100 µM.
